Here are results for 39 compounds from US9326973B2, “Hepatitis C virus inhibitors” (priority 2012, dated 2016).

The assay deals with HCV replicon, genotype-1a variant with glutamine 30 changed to glutamate in the NS5A protein. Kind of assay: microbe, parasite or virus in culture. It is filed as cell-based, HCV genotype 1a. Conditions: HCV replicon genotype 1a Q30E (Q→E) variant; test compound titrated with an NS5A-targeting compound (BMS-790052 fixed at 200 nM); ranking of synergist activity. The text has this: The NS5A synergistic inhibitory effect of test compounds can be determined using various amounts of an NS5A-targeting compound with titration of a second compound of interest. […] In one embodiment, the HCV genotype strain can be genotype 1a containing a change at amino acid 30 of the NS5A protein consisting of glutamine to glutamate. The test compound can be chosen from compounds listed above or from others present in the literature.

Structures are written as SMILES.

Consider `Cc1nnc(C(=O)N[C@H](c2nc(-c3ccc(-c4ccc(-c5c[nH]c([C@@H](NC(=O)c6nnc(C)o6)C(C)(C)C)n5)cc4)cc3)c[nH]2)C(C)(C)C)o1` [Compound L-89], for which the “Fold-Synergistic 1a (Q30E)” value is above 10 fold.

Regarding `O=C(N[C@H](c1nc(-c2ccc(-c3ccc(-c4c[nH]c([C@@H](NC(=O)C5CCC(F)(F)CC5)C5CC5)n4)cc3)cc2)c[nH]1)C1CC1)C1CCC(F)(F)CC1` [Compound L-90], the “Fold-Synergistic 1a (Q30E)” value is reported as above 100 fold.

For the compound `CC(C)(C(=O)N[C@H](c1nc(-c2ccc(-c3ccc(-c4c[nH]c([C@@H](NC(=O)C(C)(C)C5(O)CCC(F)(F)CC5)C5CC5)n4)cc3)cc2)c[nH]1)C1CC1)C1(O)CCC(F)(F)CC1` [Compound L-91], the “Fold-Synergistic 1a (Q30E)” value is above 100 fold.

For `C[C@@H](OC(=O)N(C)C1(C(=O)N[C@H](c2nc(-c3ccc(-c4ccc(-c5c[nH]c([C@@H](NC(=O)C6(N(C)C(=O)O[C@H](C)C(F)(F)F)CC6)C6(C)CC6)n5)cc4)cc3)c[nH]2)C2(C)CC2)CC1)C(F)(F)F` [Compound L-92], the “Fold-Synergistic 1a (Q30E)” value is listed as above 100 fold.

Turning to `CC(C)(C)[C@H](NC(=O)C1(NCC(F)(F)F)CC1)c1nc(-c2ccc(-c3ccc(-c4c[nH]c([C@@H](NC(=O)C5(NCC(F)(F)F)CC5)C(C)(C)C)n4)cc3)cc2)c[nH]1` [Compound L-96], the “Fold-Synergistic 1a (Q30E)” value is given as above 100 fold.

Consider `COC(=O)N[C@@H](C(=O)N[C@H](c1ncc(-c2ccc(-c3ccc(-c4cnc([C@@H](NC(=O)[C@H](NC(=O)OC)C(C)C)C(C)C)o4)cc3)cc2)o1)C(C)C)C(C)C` [Compound N-1], for which the “Fold-Synergistic 1a (Q30E)” value was above 10 fold.

In the case of `COC(=O)N[C@H](C(=O)N[C@H](c1ncc(-c2ccc(C#Cc3ccc(-c4cnc([C@@H](NC(=O)[C@@H](NC(=O)OC)C(C)C)C(C)C)[nH]4)cc3)cc2)[nH]1)C(C)C)C(C)C` [Compound N-5], the “Fold-Synergistic 1a (Q30E)” value is reported as above 10 fold.

In the case of `CC(C)CC(=O)N[C@H](c1ncc(-c2ccc(C#Cc3ccc(-c4cnc([C@@H](NC(=O)CC(C)C)C(C)C)[nH]4)cc3)cc2)[nH]1)C(C)C` [Compound N-6], the “Fold-Synergistic 1a (Q30E)” value is above 10 fold.

Turning to `COC(=O)N[C@H](C(=O)N[C@H](c1nc(-c2ccc3cc(-c4ccc(-c5cnc([C@@H](NC(=O)[C@@H](NC(=O)OC)C(C)C)C(C)(C)C)[nH]5)cc4)ccc3c2)c[nH]1)C(C)(C)C)C(C)C` [Compound N-7], the “Fold-Synergistic 1a (Q30E)” value was below 10 fold.

Regarding `COC(=O)N[C@@H](C(=O)N[C@H](c1nc(-c2ccc3cc(-c4ccc(-c5cnc([C@@H](NC(=O)[C@H](NC(=O)OC)C(C)C)C(C)(C)C)[nH]5)cc4)ccc3c2)c[nH]1)C(C)(C)C)C(C)C` [Compound N-8], the “Fold-Synergistic 1a (Q30E)” value is given as above 10 fold.

Take `CC(C)CC(=O)N[C@H](c1nc(-c2ccc3cc(-c4ccc(-c5cnc([C@@H](NC(=O)CC(C)C)C(C)(C)C)[nH]5)cc4)ccc3c2)c[nH]1)C(C)(C)C` [Compound N-9]: the “Fold-Synergistic 1a (Q30E)” value is given as above 10 fold.

With `CC(C)CC(=O)NC1(c2nc(-c3ccc(-c4ccc(-c5c[nH]c(C6(NC(=O)CC(C)C)CCC6)n5)cc4)cc3)c[nH]2)CCC1` [Compound N-11], the “Fold-Synergistic 1a (Q30E)” value is given as below 10 fold.

Take `CC(C)CC(=O)NC1(c2nc(-c3ccc(-c4ccc(-c5c[nH]c(C6(NC(=O)CC(C)C)CCCC6)n5)cc4)cc3)c[nH]2)CCCC1` [Compound N-12]: the “Fold-Synergistic 1a (Q30E)” value was below 10 fold.

For the compound `COC(=O)N[C@@H](C(=O)NC1(c2nc(-c3ccc(-c4ccc(-c5c[nH]c(C6(NC(=O)[C@H](NC(=O)OC)C(C)C)CCCC6)n5)cc4)cc3)c[nH]2)CCCC1)C(C)C` [Compound N-13], the “Fold-Synergistic 1a (Q30E)” value is on record as below 10 fold.

In the case of `COC(=O)N[C@@H](C(=O)NC1(c2nc(-c3ccc(-c4ccc(-c5c[nH]c(C6(NC(=O)[C@H](NC(=O)OC)C(C)C)CC=CC6)n5)cc4)cc3)c[nH]2)CC=CC1)C(C)C` [Compound N-14], the “Fold-Synergistic 1a (Q30E)” value was below 10 fold.

On to `COC(=O)N[C@H](C(=O)NC1(c2nc(-c3ccc(-c4ccc(-c5c[nH]c(C6(NC(=O)[C@@H](NC(=O)OC)C(C)C)CC=CC6)n5)cc4)cc3)c[nH]2)CC=CC1)C(C)C` [Compound N-15], for which the “Fold-Synergistic 1a (Q30E)” value is reported as below 10 fold.

As to `CC(C)CC(=O)NC1(c2nc(-c3ccc(-c4ccc(-c5c[nH]c(C6(NC(=O)CC(C)C)CC=CC6)n5)cc4)cc3)c[nH]2)CC=CC1` [Compound N-16], the “Fold-Synergistic 1a (Q30E)” value is below 10 fold.

Turning to `COC(=O)N[C@@H](C(=O)NC1(c2nc(-c3ccc(-c4ccc(-c5c[nH]c(C6(NC(=O)[C@H](NC(=O)OC)C(C)C)Cc7ccccc7C6)n5)cc4)cc3)c[nH]2)Cc2ccccc2C1)C(C)C` [Compound N-17], the “Fold-Synergistic 1a (Q30E)” value is on record as below 10 fold.

As for `COC(=O)N[C@H](C(=O)NC1(c2nc(-c3ccc(-c4ccc(-c5c[nH]c(C6(NC(=O)[C@@H](NC(=O)OC)C(C)C)Cc7ccccc7C6)n5)cc4)cc3)c[nH]2)Cc2ccccc2C1)C(C)C` [Compound N-18], the “Fold-Synergistic 1a (Q30E)” value is listed as below 10 fold.

As to `CC(C)CC(=O)NC1(c2nc(-c3ccc(-c4ccc(-c5c[nH]c(C6(NC(=O)CC(C)C)Cc7ccccc7C6)n5)cc4)cc3)c[nH]2)Cc2ccccc2C1` [Compound N-19], the “Fold-Synergistic 1a (Q30E)” value was below 10 fold.

Turning to `COC(=O)N[C@H](C(=O)NC1(c2nc(-c3ccc(-c4ccc(-c5c[nH]c(C6(NC(=O)[C@@H](NC(=O)OC)C(C)C)CC6)n5)cc4)cc3)c[nH]2)CC1)C(C)C` [Compound N-20], the “Fold-Synergistic 1a (Q30E)” value is listed as below 10 fold.

Turning to `CC(C)CC(=O)NC1(c2nc(-c3ccc(-c4ccc(-c5c[nH]c(C6(NC(=O)CC(C)C)CC6)n5)cc4)cc3)c[nH]2)CC1` [Compound N-21], the “Fold-Synergistic 1a (Q30E)” value is given as below 10 fold.

Regarding `COC(=O)N[C@@H](C(=O)NC1(c2nc(-c3ccc(-c4ccc(-c5c[nH]c(C6(NC(=O)[C@H](NC(=O)OC)C(C)C)CCCCC6)n5)cc4)cc3)c[nH]2)CCCCC1)C(C)C` [Compound N-22], the “Fold-Synergistic 1a (Q30E)” value is reported as above 10 fold.

With `COC(=O)N[C@H](C(=O)NC1(c2nc(-c3ccc(-c4ccc(-c5c[nH]c(C6(NC(=O)[C@@H](NC(=O)OC)C(C)C)CCCCC6)n5)cc4)cc3)c[nH]2)CCCCC1)C(C)C` [Compound N-23], the “Fold-Synergistic 1a (Q30E)” value is listed as below 10 fold.

In the case of `CC(C)CC(=O)NC1(c2nc(-c3ccc(-c4ccc(-c5c[nH]c(C6(NC(=O)CC(C)C)CCCCC6)n5)cc4)cc3)c[nH]2)CCCCC1` [Compound N-24], the “Fold-Synergistic 1a (Q30E)” value was below 10 fold.

For `COC(=O)N[C@H](C(=O)NC(C)(C)c1nc(-c2ccc(-c3ccc(-c4c[nH]c(C(C)(C)NC(=O)[C@@H](NC(=O)OC)C(C)C)n4)cc3)cc2)c[nH]1)C(C)C` [Compound N-25], the “Fold-Synergistic 1a (Q30E)” value is below 10 fold.

As to `CC(C)CC(=O)NC(C)(C)c1nc(-c2ccc(-c3ccc(-c4c[nH]c(C(C)(C)NC(=O)CC(C)C)n4)cc3)cc2)c[nH]1` [Compound N-26], the “Fold-Synergistic 1a (Q30E)” value is below 10 fold.

As for `COC(=O)N[C@@H](C(=O)N[C@@H](CC(C)C)c1nc(-c2ccc(-c3ccc(-c4c[nH]c([C@H](CC(C)C)NC(=O)[C@H](NC(=O)OC)C(C)C)n4)cc3)cc2)c[nH]1)C(C)C` [Compound N-29], the “Fold-Synergistic 1a (Q30E)” value is above 10 fold.

As to `COC(=O)N[C@H](C(=O)N[C@@H](CC(C)C)c1nc(-c2ccc(-c3ccc(-c4c[nH]c([C@H](CC(C)C)NC(=O)[C@@H](NC(=O)OC)C(C)C)n4)cc3)cc2)c[nH]1)C(C)C` [Compound N-30], the “Fold-Synergistic 1a (Q30E)” value is reported as below 10 fold.

Consider `CC(C)CC(=O)N[C@@H](CC(C)C)c1nc(-c2ccc(-c3ccc(-c4c[nH]c([C@H](CC(C)C)NC(=O)CC(C)C)n4)cc3)cc2)c[nH]1` [Compound N-31], for which the “Fold-Synergistic 1a (Q30E)” value is given as above 10 fold.

`CCC(C)[C@H](NC(=O)[C@H](NC(=O)OC)C(C)C)c1nc(-c2ccc(-c3ccc(-c4c[nH]c([C@@H](NC(=O)[C@H](NC(=O)OC)C(C)C)C(C)CC)n4)cc3)cc2)c[nH]1` (stereo partly drawn) [Compound N-32]: the “Fold-Synergistic 1a (Q30E)” value is above 10 fold.

With `CCC(C)[C@H](NC(=O)[C@@H](NC(=O)OC)C(C)C)c1nc(-c2ccc(-c3ccc(-c4c[nH]c([C@@H](NC(=O)[C@@H](NC(=O)OC)C(C)C)C(C)CC)n4)cc3)cc2)c[nH]1` (stereo partly drawn) [Compound N-33], the “Fold-Synergistic 1a (Q30E)” value is above 10 fold.

As for `CCC(C)[C@H](NC(=O)CC(C)C)c1nc(-c2ccc(-c3ccc(-c4c[nH]c([C@@H](NC(=O)CC(C)C)C(C)CC)n4)cc3)cc2)c[nH]1` (stereo partly drawn) [Compound N-34], the “Fold-Synergistic 1a (Q30E)” value is on record as above 100 fold.

On to `COC(=O)N[C@H](C(=O)N[C@H](c1nc(-c2ccc(-c3ccc(-c4c[nH]c([C@@H](NC(=O)[C@@H](NC(=O)OC)C(C)C)C(C)(C)C)n4)cc3)cc2)c[nH]1)C(C)(C)C)C(C)C` [Compound N-35], for which the “Fold-Synergistic 1a (Q30E)” value is on record as above 100 fold.

With `COC(=O)N[C@@H](C(=O)N[C@@H](C)c1nc(-c2ccc(-c3ccc(-c4c[nH]c([C@H](C)NC(=O)[C@H](NC(=O)OC)C(C)C)n4)cc3)cc2)c[nH]1)C(C)C` [Compound N-37], the “Fold-Synergistic 1a (Q30E)” value is reported as above 10 fold.

Regarding `COC(=O)N[C@H](C(=O)N[C@@H](C)c1nc(-c2ccc(-c3ccc(-c4c[nH]c([C@H](C)NC(=O)[C@@H](NC(=O)OC)C(C)C)n4)cc3)cc2)c[nH]1)C(C)C` [Compound N-38], the “Fold-Synergistic 1a (Q30E)” value is listed as below 10 fold.

For the compound `CC(C)CC(=O)N[C@@H](C)c1nc(-c2ccc(-c3ccc(-c4c[nH]c([C@H](C)NC(=O)CC(C)C)n4)cc3)cc2)c[nH]1` [Compound N-39], the “Fold-Synergistic 1a (Q30E)” value is reported as above 10 fold.

In the case of `CC[C@H](NC(=O)[C@H](NC(=O)OC)C(C)C)c1nc(-c2ccc(-c3ccc(-c4c[nH]c([C@H](CC)NC(=O)[C@H](NC(=O)OC)C(C)C)n4)cc3)cc2)c[nH]1` [Compound N-40], the “Fold-Synergistic 1a (Q30E)” value is on record as above 100 fold.

On to `CC[C@H](NC(=O)[C@@H](NC(=O)OC)C(C)C)c1nc(-c2ccc(-c3ccc(-c4c[nH]c([C@H](CC)NC(=O)[C@@H](NC(=O)OC)C(C)C)n4)cc3)cc2)c[nH]1` [Compound N-41], for which the “Fold-Synergistic 1a (Q30E)” value is listed as above 10 fold.
